Measured values from PubChem BioAssay (NCI).
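Compound exposure: 48 hours, 5 concentrations, 96-well plates. At the GI50, growth is halved. TGI: concentration producing complete growth inhibition.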 Where a SMILES comes first, the peptide text is derived from it. The star is where a group is joined. Boc = CC(C)(C)OC(=O)*

Legend:
Experiment in all cases: inhibition of tumour cell growth, NCI panel, 48 h
HCC-2998 colon = test system: HCC-2998 colon
RXF 393 renal = test system: RXF 393 renal
UACC-257 melanoma = test system: UACC-257 melanoma
NCI-H522 lung = test system: NCI-H522 lung
NCI-H23 lung = test system: NCI-H23 lung
OVCAR-8 ovarian = test system: OVCAR-8 ovarian
DU-145 prostate = test system: DU-145 prostate
U251 CNS = test system: U251 CNS
ACHN renal = test system: ACHN renal
NCI-H460 lung = test system: NCI-H460 lung
SK-MEL-28 melanoma = test system: SK-MEL-28 melanoma
IGROV1 ovarian = test system: IGROV1 ovarian
UACC-62 melanoma = test system: UACC-62 melanoma
MOLT-4 leukemia = test system: MOLT-4 leukemia
SNB-75 CNS = test system: SNB-75 CNS
HS 578T breast = test system: HS 578T breast
K-562 leukemia = test system: K-562 leukemia
SF-268 CNS = test system: SF-268 CNS

Structure (SMILES)	TGI (HCC-2998 colon)	TGI (RXF 393 renal)	TGI (UACC-257 melanoma)	TGI (NCI-H522 lung)	TGI (NCI-H23 lung)	TGI (OVCAR-8 ovarian)	TGI (DU-145 prostate)	TGI (U251 CNS)	TGI (ACHN renal)	TGI (NCI-H460 lung)	TGI (SK-MEL-28 melanoma)	TGI (IGROV1 ovarian)	TGI (UACC-62 melanoma)	TGI (MOLT-4 leukemia)	TGI (SNB-75 CNS)	TGI (HS 578T breast)	TGI (K-562 leukemia)	TGI (SF-268 CNS)	GI50 (DU-145 prostate)	GI50 (UACC-62 melanoma)
O=C(NCCCCNCCCNC(=O)c1cc(-c2ccccc2)nc2ccccc12)c1cc(-c2ccccc2)nc2ccccc12	3.09 µM	3.97 µM	3.36 µM	3.08 µM	4.02 µM	3.06 µM	3.8 µM	3.32 µM	3.3 µM	3.39 µM	3.42 µM	2.88 µM	3.9 µM	–	–	–	–	–	–	–
COc1ccc(Nc2nc(N)c(C(=O)c3ccccc3)s2)cc1	–	24.2 µM	> 100 µM	> 100 µM	> 60.3 µM	> 100 µM	> 72.8 µM	> 100 µM	> 100 µM	19.9 µM	> 100 µM	37 µM	> 100 µM	> 61.7 µM	0.33 µM	3.18 µM	> 100 µM	> 58.1 µM	–	–
Cc1ccc(Nc2sc(C)cc2C#N)c([N+](=O)[O-])c1	> 100 µM	> 100 µM	> 100 µM	> 100 µM	> 100 µM	> 100 µM	> 100 µM	> 100 µM	> 100 µM	> 100 µM	> 100 µM	–	> 100 µM	> 100 µM	> 100 µM	–	> 100 µM	> 100 µM	–	–
O=c1c(O)c(-c2cc(O)c(O)cc2O)oc2cc(O)c(C3OC(CO)C(O)C(O)C3O)c(O)c12 (stereo not given)	–	–	> 100 µM	> 100 µM	–	> 100 µM	> 100 µM	> 100 µM	> 100 µM	> 100 µM	> 100 µM	> 100 µM	> 100 µM	> 100 µM	> 100 µM	> 100 µM	> 100 µM	> 100 µM	–	–
N#C[C@@]12CCCC(=O)[C@@H]1[C@H]1CCC[C@H]12	31.7 µM	–	36.2 µM	–	35 µM	47.5 µM	28.8 µM	35.5 µM	33.1 µM	32.8 µM	35.3 µM	32.2 µM	58 µM	55.9 µM	36 µM	> 100 µM	37.7 µM	–	–	–
CN[C@@H](C)[C@H](OP(=O)(O)OC1[C@@H](O)[C@H](O)C(O)[C@H](O)[C@@H]1O)c1ccccc1 (stereo not given in full)	> 100 µM	–	> 100 µM	> 100 µM	> 100 µM	> 100 µM	> 100 µM	> 100 µM	> 100 µM	> 100 µM	> 100 µM	> 100 µM	> 100 µM	> 100 µM	> 100 µM	> 100 µM	–	> 100 µM	–	–
C=Cc1cc2c(cc1O)CC[C@@H]1[C@@H]2CC[C@]2(C)[C@@H](O)CC[C@@H]12	25.4 µM	8.92 µM	8.87 µM	20.6 µM	14.3 µM	–	16.6 µM	15.1 µM	21.1 µM	21.1 µM	16.7 µM	19.3 µM	8.65 µM	14.5 µM	24.4 µM	–	20.4 µM	21.9 µM	4.41 µM	2530 nM
CC(C)CC1[C@@H](OCc2ccccc2)COS(=O)(=O)N1Cc1ccccc1 (stereo not given in full)	–	–	> 100 µM	> 100 µM	75.2 µM	> 100 µM	> 100 µM	> 100 µM	> 100 µM	> 100 µM	> 100 µM	> 100 µM	> 100 µM	> 100 µM	> 100 µM	70 µM	> 100 µM	> 100 µM	–	–
Cc1cc(O)c(/C=N/c2nc(-c3cccc([N+](=O)[O-])c3)cs2)c(=O)o1	> 100 µM	–	> 100 µM	–	> 100 µM	> 100 µM	> 100 µM	> 100 µM	> 100 µM	> 100 µM	> 100 µM	> 100 µM	> 100 µM	–	> 100 µM	–	–	–	–	–
CCOC(=O)COc1c(OC)cc(C2C3=C(COC3=O)Oc3cc4c(cc32)OCO4)cc1OC (stereo not given)	30.7 µM	–	> 100 µM	3.14 µM	14.2 µM	47 µM	> 29.1 µM	81.9 µM	> 45.8 µM	49.4 µM	–	33.7 µM	> 31.6 µM	41.8 µM	> 100 µM	> 57.1 µM	12.2 µM	> 100 µM	–	–
S=C(c1c[nH]c2ccccc12)N1CCN(c2ccccc2)CC1	–	> 100 µM	> 100 µM	–	> 100 µM	> 100 µM	> 100 µM	77.8 µM	> 100 µM	> 100 µM	> 100 µM	> 100 µM	> 100 µM	> 100 µM	21.6 µM	38.3 µM	> 100 µM	> 100 µM	–	–
CCOCC(NC(=O)C(CC(C)C)NC(=O)OC(C)(C)C)C(N)=O (stereo not drawn) (Boc-Leu-Ser(Et)-NH2; configuration not given here)	–	> 100 µM	> 100 µM	> 100 µM	> 100 µM	> 100 µM	> 100 µM	2.79 µM	> 100 µM	–	2.84 µM	> 100 µM	> 100 µM	> 100 µM	> 100 µM	> 100 µM	–	> 100 µM	–	–
Cn1c2ccccc2n2c(=O)c3cccnc3c(C#N)c12	–	> 100 µM	> 100 µM	> 100 µM	> 100 µM	> 100 µM	> 100 µM	> 100 µM	> 100 µM	> 100 µM	> 100 µM	–	–	> 100 µM	> 100 µM	–	–	> 100 µM	–	–
NC12CC3CC4C1CC1CC2C(C3)C4(N)C1	–	> 100 µM	> 100 µM	> 100 µM	> 100 µM	> 100 µM	> 100 µM	> 100 µM	> 100 µM	> 100 µM	> 100 µM	> 100 µM	> 100 µM	> 100 µM	–	> 100 µM	> 100 µM	> 100 µM	–	–
O=C(O)c1cc(O)c2c(c1)Cc1cccc(O)c1C2=O	> 100 µM	–	67 µM	–	> 100 µM	55.8 µM	> 100 µM	37.3 µM	34.8 µM	65.6 µM	> 100 µM	–	36.8 µM	56.5 µM	30.6 µM	–	> 100 µM	56.6 µM	–	–
CSc1nncc2[nH]cnc12	–	> 100 µM	> 100 µM	–	> 100 µM	> 100 µM	> 100 µM	> 100 µM	> 100 µM	> 100 µM	> 100 µM	> 100 µM	> 100 µM	> 100 µM	> 100 µM	> 100 µM	> 100 µM	> 100 µM	–	–
O=S(=O)(O)c1ccc2c(N=Nc3ccccc3Cl)c(O)ccc2c1	–	> 100 µM	> 100 µM	> 100 µM	> 100 µM	> 100 µM	> 100 µM	> 100 µM	> 100 µM	–	> 100 µM	> 100 µM	> 100 µM	> 100 µM	> 100 µM	> 100 µM	> 100 µM	> 100 µM	–	–
O=c1c(-c2ccccc2Cl)coc2cc(F)ccc12	–	> 100 µM	> 100 µM	36.5 µM	> 100 µM	> 100 µM	83.9 µM	35.3 µM	> 100 µM	> 100 µM	> 100 µM	51.5 µM	73.6 µM	> 100 µM	54.5 µM	> 100 µM	–	> 100 µM	–	–
CC(=O)O[C@H]1C(=O)[C@@]2(C)[C@H]([C@H](OC(=O)c3ccccc3)[C@]3(O)C[C@H](OC(=O)[C@H](O)[C@@H](NC(=O)CC(C)C)c4ccccc4)C(C)=C1C3(C)C)[C@]1(OC(C)=O)CO[C@@H]1C[C@@H]2O	0.0636 µM	–	> 10 µM	0.0135 µM	> 10 µM	> 3.24 µM	0.188 µM	> 10 µM	> 10 µM	> 10 µM	> 10 µM	> 10 µM	> 10 µM	> 10 µM	0.0253 µM	0.00822 µM	> 10 µM	> 10 µM	–	–
O=C1/C(=C/c2cccs2)NC(=S)N1CN1CCOCC1	–	–	> 100 µM	–	> 100 µM	> 100 µM	> 100 µM	> 100 µM	> 100 µM	–	> 100 µM	> 100 µM	> 100 µM	> 100 µM	> 100 µM	> 100 µM	> 100 µM	> 100 µM	–	–
C/C(=N\O)c1cccc(Nc2nc3ccccc3c3occc23)c1	28.9 µM	21 µM	2.59 µM	–	–	32.8 µM	27.8 µM	> 100 µM	22.8 µM	21 µM	29.2 µM	–	5.22 µM	32.9 µM	32.3 µM	32.8 µM	70.5 µM	27.6 µM	–	–
CN(C)CCNC(=O)c1ccc(NCCCN(C)CCCNc2ccc(C(=O)NCCN(C)C)c3[nH]c4ccc([N+](=O)[O-])cc4c(=O)c23)c2c(=O)c3cc([N+](=O)[O-])ccc3[nH]c12	0.254 µM	0.351 µM	1.62 µM	–	0.537 µM	1.3 µM	0.641 µM	0.162 µM	1.5 µM	0.169 µM	1.06 µM	0.389 µM	0.622 µM	0.0623 µM	1.21 µM	> 100 µM	1.83 µM	–	–	–
CSc1ccc(/C=C2\N=C(c3ccccc3)N(c3nc4c(Cl)cc(Cl)cc4s3)C2=O)cc1	94 µM	67.5 µM	> 100 µM	–	–	> 100 µM	93.7 µM	37.3 µM	68.5 µM	> 100 µM	> 100 µM	> 100 µM	73.1 µM	49.5 µM	62 µM	64.6 µM	> 100 µM	86.3 µM	–	–
COc1ccc2c(c1)CCCN1CCc3cc(OC)c(OC)cc3C21 (stereo not given)	> 100 µM	–	> 100 µM	–	–	> 100 µM	> 100 µM	> 100 µM	> 100 µM	–	> 100 µM	> 100 µM	> 100 µM	> 100 µM	> 100 µM	–	> 100 µM	> 100 µM	–	–
CC1C(c2ccc3c(c2)OCO3)c2cc3c(cc2OC1N1CCCCC1)OCO3 (stereo not given)	> 100 µM	–	> 100 µM	> 100 µM	> 100 µM	> 100 µM	> 100 µM	–	> 100 µM	> 100 µM	> 100 µM	> 100 µM	> 100 µM	> 100 µM	–	> 100 µM	> 100 µM	> 100 µM	–	–
CC(C)(C)OC(=O)Nc1cc(-c2ccccc2)co1	> 100 µM	–	> 100 µM	69.1 µM	> 100 µM	> 100 µM	> 100 µM	> 100 µM	> 100 µM	–	> 100 µM	> 100 µM	> 100 µM	> 100 µM	–	–	> 100 µM	94.4 µM	–	–
CC(=O)c1c(-c2ccccc2)c(-c2ccc(OCCN(C)C)cc2)n2ccccc12	27.7 µM	–	28.9 µM	27.9 µM	36.7 µM	31 µM	31.8 µM	31.3 µM	29.2 µM	26 µM	28.6 µM	33.3 µM	30.7 µM	48 µM	27.9 µM	42.2 µM	> 100 µM	33.1 µM	–	–
CC(=O)NNC(=S)/N=C/c1c(O)cc(C)oc1=O	> 100 µM	–	> 100 µM	–	> 100 µM	> 100 µM	> 100 µM	> 100 µM	> 100 µM	> 100 µM	> 100 µM	> 100 µM	–	> 100 µM	> 100 µM	–	–	–	–	–
O=C1CC(c2ccc[nH]2)=NN1c1ccccc1	–	> 100 µM	> 100 µM	> 100 µM	> 100 µM	> 100 µM	> 100 µM	> 100 µM	> 100 µM	> 100 µM	> 100 µM	–	> 100 µM	85.5 µM	> 100 µM	–	> 100 µM	> 100 µM	–	–
